Source: ChEMBL document CHEMBL2074246, “Distinct groups of multidrug resistance modulating agents are distinguished by competition of P-glycoprotein-specific antibodies” (Biochem Biophys Res Commun, 2004)
One block for each compound: values may come before it. *1 amine or outer side, *2 acyl side, *3 side chain or, on linkers, in order; H or OH if unused. Where a SMILES comes first, the peptide text is derived from it. Bridges are numbered along the chain shown (N, C = ends). Roman numbers before positions name the chains, in order. [ ]: non-standard residue; d: D form. The star is where a group is joined. Actinocin(9to1) = Cc1c2oc3c(C)ccc(C(=O)[*:1])c3nc-2c(C(=O)[*:2])c(N)c1=O; NMeV = CN[C@H](C(=O)O)C(C)C; NHCH2CH2OH = OCCN*; Sar = CNCC(=O)O; For = O=C*

Tests used:
Format in all cases: functional, cell-based
[1] = target: T1, ATP-dependent translocase ABCB1 (Homo sapiens, UniProt P08183); assay: TP_TRANSPORTER: increase in Calcein-AM intracellular accumulation (Calcein-AM: 0.5 uM, Hoechst 33342: 50 uM) in MDR1-expressing NIH-3T3 cells; conditions: mouse, nih3t3, 50 µM
[2] = target: T1, ATP-dependent translocase ABCB1; assay: TP_TRANSPORTER: increase in Calcein-AM intracellular accumulation (Calcein-AM: 0.5 uM, Actinomycin D: 40 uM) in MDR1-expressing NIH-3T3 cells; conditions: mouse, nih3t3, 40 µM
[3] = target: T1, ATP-dependent translocase ABCB1; assay: TP_TRANSPORTER: increase in Calcein-AM intracellular accumulation (Calcein-AM: 0.5 uM, Tween 20: 1.4x10-3a%) in MDR1-expressing NIH-3T3 cells; conditions: mouse, nih3t3
[4] = target: T1, ATP-dependent translocase ABCB1; assay: TP_TRANSPORTER: increase in Calcein-AM intracellular accumulation (Calcein-AM: 0.5 uM, Gramicidin D: 10 uM) in MDR1-expressing NIH-3T3 cells; conditions: mouse, nih3t3, 10 µM
[5] = target: T1, ATP-dependent translocase ABCB1; assay: TP_TRANSPORTER: increase in Calcein-AM intracellular accumulation (Calcein-AM: 0.5 uM, Quinine: 20 uM) in MDR1-expressing NIH-3T3 cells; conditions: mouse, nih3t3, 20 µM
[6] = target: T1, ATP-dependent translocase ABCB1; assay: TP_TRANSPORTER: increase in Calcein-AM intracellular accumulation (Calcein-AM: 0.5 uM, Rapamycin: 20 uM) in MDR1-expressing NIH-3T3 cells; conditions: mouse, nih3t3, 20 µM
[7] = target: T1, ATP-dependent translocase ABCB1; assay: TP_TRANSPORTER: increase in Calcein-AM intracellular accumulation (Calcein-AM: 0.5 uM, Imipramine: 20 uM) in MDR1-expressing NIH-3T3 cells; conditions: mouse, nih3t3, 20 µM
[8] = target: T1, ATP-dependent translocase ABCB1; assay: TP_TRANSPORTER: increase in Calcein-AM intracellular accumulation (Calcein-AM: 0.5 uM, Mitomycin C: 20 uM) in MDR1-expressing NIH-3T3 cells; conditions: mouse, nih3t3, 20 µM
[9] = target: T1, ATP-dependent translocase ABCB1; assay: TP_TRANSPORTER: increase in Calcein-AM intracellular accumulation (Calcein-AM: 0.5 uM, Vinblastine: 70 uM) in MDR1-expressing NIH-3T3 cells; conditions: mouse, nih3t3, 70 µM
[10] = target: T1, ATP-dependent translocase ABCB1; assay: TP_TRANSPORTER: increase in Calcein-AM intracellular accumulation (Calcein-AM: 0.5 uM, Reserpine: 40 uM) in MDR1-expressing NIH-3T3 cells; conditions: mouse, nih3t3, 40 µM
[11] = target: T1, ATP-dependent translocase ABCB1; assay: TP_TRANSPORTER: increase in Calcein-AM intracellular accumulation (Calcein-AM: 0.5 uM, Valinomycin: 10 uM) in MDR1-expressing NIH-3T3 cells; conditions: mouse, nih3t3, 10 µM
[12] = target: T1, ATP-dependent translocase ABCB1; assay: TP_TRANSPORTER: increase in Calcein-AM intracellular accumulation (Calcein-AM: 0.5uM, Nonidet P-40:6x10-4a%) in MDR1-expressing NIH-3T3 cells; conditions: mouse, nih3t3
[13] = target: T1, ATP-dependent translocase ABCB1; assay: TP_TRANSPORTER: increase in Calcein-AM intracellular accumulation (Calcein-AM: 0.5 uM, o-Amsacrine: 5 uM) in MDR1-expressing NIH-3T3 cells; conditions: mouse, nih3t3, 5 µM
[14] = target: T1, ATP-dependent translocase ABCB1; assay: TP_TRANSPORTER: increase in Calcein-AM intracellular accumulation (Calcein-AM: 0.5 uM, Desipramine: 20 uM) in MDR1-expressing NIH-3T3 cells; conditions: mouse, nih3t3, 20 µM
[15] = target: T1, ATP-dependent translocase ABCB1; assay: TP_TRANSPORTER: increase in Calcein-AM intracellular accumulation (Calcein-AM: 0.5 uM, Galangin: 50 uM) in MDR1-expressing NIH-3T3 cells; conditions: mouse, nih3t3, 50 µM

T1 sequence (P08183 whole entry): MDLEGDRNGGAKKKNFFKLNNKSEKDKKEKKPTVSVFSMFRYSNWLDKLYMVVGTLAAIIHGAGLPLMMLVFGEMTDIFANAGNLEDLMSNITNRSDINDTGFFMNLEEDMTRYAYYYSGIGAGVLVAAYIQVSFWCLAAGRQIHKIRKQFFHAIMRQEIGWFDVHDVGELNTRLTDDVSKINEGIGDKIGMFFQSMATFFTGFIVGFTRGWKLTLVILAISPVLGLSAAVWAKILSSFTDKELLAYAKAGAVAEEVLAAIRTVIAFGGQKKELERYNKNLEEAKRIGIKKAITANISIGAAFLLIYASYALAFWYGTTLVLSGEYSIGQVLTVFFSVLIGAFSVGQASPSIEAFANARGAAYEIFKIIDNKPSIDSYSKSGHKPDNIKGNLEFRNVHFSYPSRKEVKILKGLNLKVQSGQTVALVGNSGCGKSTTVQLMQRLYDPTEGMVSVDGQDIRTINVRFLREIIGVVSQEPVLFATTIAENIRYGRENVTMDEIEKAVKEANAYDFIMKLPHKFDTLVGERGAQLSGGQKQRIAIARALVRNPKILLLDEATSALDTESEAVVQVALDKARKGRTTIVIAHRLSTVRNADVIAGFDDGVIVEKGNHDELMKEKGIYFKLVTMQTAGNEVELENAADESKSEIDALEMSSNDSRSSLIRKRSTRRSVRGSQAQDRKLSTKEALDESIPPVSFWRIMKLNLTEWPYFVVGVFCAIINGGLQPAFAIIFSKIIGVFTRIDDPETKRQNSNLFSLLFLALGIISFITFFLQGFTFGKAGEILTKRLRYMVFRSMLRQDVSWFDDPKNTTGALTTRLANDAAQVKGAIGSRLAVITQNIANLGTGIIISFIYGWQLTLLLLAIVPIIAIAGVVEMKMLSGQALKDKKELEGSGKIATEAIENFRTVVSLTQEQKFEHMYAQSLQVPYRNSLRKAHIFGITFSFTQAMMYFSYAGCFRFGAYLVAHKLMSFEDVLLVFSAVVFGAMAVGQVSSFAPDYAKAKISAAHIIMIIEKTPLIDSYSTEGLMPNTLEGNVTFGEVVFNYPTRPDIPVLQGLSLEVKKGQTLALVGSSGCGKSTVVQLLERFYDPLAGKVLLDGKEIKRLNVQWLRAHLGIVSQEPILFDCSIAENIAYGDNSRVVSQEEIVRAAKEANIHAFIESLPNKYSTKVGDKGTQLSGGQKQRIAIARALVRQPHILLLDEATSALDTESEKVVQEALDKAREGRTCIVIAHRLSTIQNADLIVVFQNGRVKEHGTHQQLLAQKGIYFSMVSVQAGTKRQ

Compound: CCOc1ccc(-c2nc3cc(-c4nc5cc(N6CCN(C)CC6)ccc5[nH]4)ccc3[nH]2)cc1
Activity [1]: is not an inhibitor [-]

Compound: Cc1c2oc3c(C)ccc(C(=O)N[C@@H]4C(=O)N[C@H](C(C)C)C(=O)N5CCC[C@H]5C(=O)N(C)CC(=O)N(C)[C@@H](C(C)C)C(=O)O[C@@H]4C)c3nc-2c(C(=O)N[C@@H]2C(=O)N[C@H](C(C)C)C(=O)N3CCC[C@H]3C(=O)N(C)CC(=O)N(C)[C@@H](C(C)C)C(=O)O[C@@H]2C)c(N)c1=O [DACTINOMYCIN] (I: T[dV]P[Sar][NMeV] / II: T[dV]P[Sar][NMeV]; ester I:1-I:C, II:1-II:C; linker I:N-II:N via Actinocin(9to1))
Activity [2]: inhibitor [+]

Compound: CCCCCCCCCCCC(=O)OCCOCCOCCOCCOCCOCCOCCOCCOCCOCCOCCOCCOCCOCCOCCOCCOCCOCCOCCOCCOCC(OCCOCCOCCOCCOCCOCCOCCOCCOCCOCCOCCOCCOCCOCCOCCOCCOCCOCCOCCOCCO)C1OCC(OCCOCCOCCOCCOCCOCCOCCOCCOCCOCCOCCOCCOCCOCCOCCOCCOCCOCCOCCOCCO)C1OCCOCCOCCOCCOCCOCCOCCOCCOCCOCCOCCOCCOCCOCCOCCOCCOCCOCCOCCOCCO (stereo not given) [TWEEN 20]
Activity [3]: inhibitor [+]

Compound: CC(C)C[C@@H](NC(=O)[C@H](C)NC(=O)CNC(=O)[C@@H](NC=O)C(C)C)C(=O)N[C@@H](C)C(=O)N[C@@H](C(=O)N[C@H](C(=O)N[C@@H](C(=O)N[C@@H](Cc1c[nH]c2ccccc12)C(=O)N[C@H](CC(C)C)C(=O)N[C@@H](Cc1c[nH]c2ccccc12)C(=O)N[C@H](CC(C)C)C(=O)N[C@@H](Cc1c[nH]c2ccccc12)C(=O)N[C@H](CC(C)C)C(=O)N[C@@H](Cc1c[nH]c2ccccc12)C(=O)NCCO)C(C)C)C(C)C)C(C)C [GRAMICIDIN D] (For-VGA[dL]A[dV]V[dV]W[dL]W[dL]W[dL]W-NHCH2CH2OH)
Activity [4]: is not an inhibitor [-]

Compound: CO[C@H]1C[C@@H]2CC[C@@H](C)[C@@](O)(O2)C(=O)C(=O)N2CCCC[C@H]2C(=O)O[C@H]([C@H](C)C[C@@H]2CC[C@@H](O)[C@H](OC)C2)CC(=O)[C@H](C)/C=C(\C)[C@@H](O)[C@@H](OC)C(=O)[C@H](C)C[C@H](C)/C=C/C=C/C=C/1C [SIROLIMUS]
Activity [6]: inhibitor [+]

Compound: CO[C@@]12[C@H](COC(N)=O)C3=C(C(=O)C(C)=C(N)C3=O)N1C[C@@H]1N[C@@H]12 [MITOMYCIN]
Activity [8]: is not an inhibitor [-]

Compound: COC(=O)[C@H]1[C@H]2C[C@@H]3c4[nH]c5cc(OC)ccc5c4CCN3C[C@H]2C[C@@H](OC(=O)c2cc(OC)c(OC)c(OC)c2)[C@@H]1OC [RESERPINE]
Activity [10]: inhibitor [+]

Compound: CC(C)[C@@H]1NC(=O)[C@H](C)OC(=O)[C@@H](C(C)C)NC(=O)[C@@H](C(C)C)OC(=O)[C@H](C(C)C)NC(=O)[C@H](C)OC(=O)[C@@H](C(C)C)NC(=O)[C@@H](C(C)C)OC(=O)[C@H](C(C)C)NC(=O)[C@H](C)OC(=O)[C@@H](C(C)C)NC(=O)[C@@H](C(C)C)OC1=O [VALINOMYCIN]
Activity [11]: inhibitor [+]

Compound: CC(C)(C)CC(C)(C)c1ccc(OCCOCCO)cc1
Activity [12]: inhibitor [+]

Now from value to compound:

Activity [5]: inhibitor [+]
Compound: C=C[C@H]1C[N@@]2CC[C@H]1C[C@H]2[C@H](O)c1ccnc2ccc(OC)cc12 [QUININE]

Activity [7]: inhibitor [+]
Compound: CN(C)CCCN1c2ccccc2CCc2ccccc21 [IMIPRAMINE]

Activity [9]: inhibitor [+]
Compound: CC[C@]1(O)C[C@@H]2CN(CCc3c([nH]c4ccccc34)[C@@](C(=O)OC)(c3cc4c(cc3OC)N(C)[C@H]3[C@@](O)(C(=O)OC)[C@H](OC(C)=O)[C@]5(CC)C=CCN6CC[C@]43[C@@H]65)C2)C1 [VINBLASTINE]

Activity [13]: inhibitor [+]
Compound: COc1cc(Nc2c3ccccc3nc3ccccc23)ccc1NS(C)(=O)=O [o-Amsacrine]

Activity [14]: inhibitor [+]
Compound: CNCCCN1c2ccccc2CCc2ccccc21 [DESIPRAMINE]

Activity [15]: inhibitor [+]
Compound: O=c1c(O)c(-c2ccccc2)oc2cc(O)cc(O)c12 [GALANGIN]
